# Source: patent US20020137929A1, “1 - (3-heterocyclylphenyl) isothiourea, -isourea, -guanidine and -amidine herbicidal agents” (Intellectual Property Department, BASF Aktiengesellschaft, priority 1998, published 2002)
# Assays:
# ECHCG (Barnyardgrass) = test: Preemergence herbicidal evaluation; format: in vivo, Echinochloa crus-galli; details: rated 4-5 weeks after treatment; for ECHCG rating: preemergence, 0-9 scale
# Outline: (§1)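 Test compound, dissolved in aqueous acetone, was sprayed over planted soil cups at an equivalent of about 0.0156 to 0.500 kg/ha; seeds had been mixed with potting soil. Greenhouse growth followed, with visual 0-9 scoring of injury at four to five weeks.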
# [1] = test system: SAGPY (Arrowhead (Pygmaea)); test: Postemergence weed control under flooded paddy conditions; format: in vivo, Sagittaria pygmaea; details: postemergence weeds, rated 3 to 4 weeks after treatment
# Outline: (§2)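 Injury ratings (0–9 scale covering stand, vigor, malformation, size, chlorosis and overall appearance versus control) were made three to four weeks after treatment. Test material, about 0.0313 to 0.500 kg/ha a.i. in 50/50 v/v aqueous/acetone, was added to flood water 1.5 to 3 cm deep over 3 to 5 cm weeds and 1.5 to 2.5 leaf rice.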
# GALAP (Galium) = test: Postemergence herbicidal evaluation; format: in vivo, Galium aparine; details: postemergence
# Outline: (§3)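 Seedlings grown about two weeks were sprayed at 40 psi with compound dispersed in 50/50 acetone/water plus 0.5% TWEEN 20, at about 0.0156 to 0.500 kg/ha. Plants were kept in the greenhouse and scored 4–5 weeks later on a 0–9 visual scale against untreated controls.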
# [2] = test system: TRZAWR (Wheat, Winter, cv Riband); test: Postemergence herbicidal evaluation; format: in vivo, Triticum aestivum; details: postemergence
# Outline: as §3
# CYPIR (Rice Flatsedge) = test: Preemergence weed control under flooded paddy conditions; format: in vivo, Cyperus iria; details: rated 3-4 weeks after treatment
# Outline: (§4)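 Visual injury scored 0-9 against control three to four weeks post-treatment, greenhouse-grown. Application: acetone/water (50/50) solutions dosed directly into flood water (1.5-3 cm over silt loam, planted top 0.5 cm), roughly 0.0313 to 0.500 kg/ha active ingredient.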
# ZEAMX (Corn, Field) = test: Preemergence herbicidal evaluation; format: in vivo, Zea mays; details: rated 4-5 weeks after treatment; for ZEAMX rating: preemergence, 0-9 scale
# Outline: as §1
# [3] = test system: IPOHE (Morningglory, Ivyleaf); test: Preemergence herbicidal evaluation; format: in vivo, Ipomoea hederacea; details: rated 4-5 weeks after treatment; for IPOHE rating: preemergence, 0-9 scale
# Outline: as §1
# [4] = test system: ECHORC (Watergrass (Calif.)); test: Preemergence weed control under flooded paddy conditions; format: in vivo, Echinochloa oryzoides; details: rated 3-4 weeks after treatment
# Outline: as §4
# [5] = test system: ECHORC (Watergrass (Calif.)); test: Postemergence weed control under flooded paddy conditions; format: in vivo, Echinochloa oryzoides; details: postemergence weeds, rated 3 to 4 weeks after treatment
# Outline: as §2
# SETVI (Foxtail, Green) [6] = test: Postemergence herbicidal evaluation; format: in vivo, Setaria viridis; details: postemergence
# Outline: as §3
# MOOVA (Monochoria) = test: Preemergence weed control under flooded paddy conditions; format: in vivo, Monochoria vaginalis; details: rated 3-4 weeks after treatment
# Outline: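 Seeds or propagules sown in silt loam kept flooded 1.5-3 cm; compounds in 50/50 acetone/water pipetted into flood water at about 0.0313 to 0.500 kg/ha. Greenhouse; visual 0-9 rating versus untreated control 3-4 weeks after treatment.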
# [7] = test system: IPOHE (Morningglory, Ivyleaf); test: Postemergence herbicidal evaluation; format: in vivo, Ipomoea hederacea; details: postemergence
# Outline: as §3
# ABUTH (Velvetleaf) = test: Preemergence herbicidal evaluation; format: in vivo, Abutilon theophrasti; details: rated 4-5 weeks after treatment; for ABUTH rating: preemergence, 0-9 scale
# Outline: as §1
# SETVI (Foxtail, Green) [8] = test: Preemergence herbicidal evaluation; format: in vivo, Setaria viridis; details: rated 4-5 weeks after treatment; for SETVI rating: preemergence, 0-9 scale
# Outline: as §1
smiles,measurement,setting,value
"CCS(=O)(=O)NC(=O)CC1SC(=Nc2cc(-n3c(=O)cc(C(F)(F)F)n(C)c3=O)c(F)cc2Cl)N(C)C1=O (stereo not drawn) [Compound 105, 2-{{2-Chloro-5-[3,6-dihydro-3-methyl-2,6-dioxo-4-(trifluoromethyl)-1(2H)-pyrimidinyl]-4-fluorophenyl}imino}-N-(ethylsulfonyl)-3-methyl-4-oxo-5-thiazolidineacetamide]",ECHCG rating,ECHCG (Barnyardgrass); 0.1250 kg/ha,0.0
same,ECHCG rating,ECHCG (Barnyardgrass); 0.2500 kg/ha,0.0
same,ECHCG rating,ECHCG (Barnyardgrass); 0.5000 kg/ha,1.0
same,Herbicidal rating SAGPY,[1]; Rate 0.0313 kg/ha,3.0
same,Herbicidal rating SAGPY,[1]; Rate 0.0625 kg/ha,5.0
same,Herbicidal rating SAGPY,[1]; Rate 0.1250 kg/ha,5.0
same,Herbicidal rating SAGPY,[1]; Rate 0.2500 kg/ha,7.0
same,herbicidal rating GALAP,GALAP (Galium); rate 0.0156 kg/ha,0.0
same,herbicidal rating GALAP,GALAP (Galium); rate 0.0313 kg/ha,0.0
same,herbicidal rating GALAP,GALAP (Galium); rate 0.0625 kg/ha,1.0
same,herbicidal rating GALAP,GALAP (Galium); rate 0.1250 kg/ha,2.0
same,herbicidal rating TRZAWR,[2]; rate 0.0156 kg/ha,3.5
same,herbicidal rating TRZAWR,[2]; rate 0.0313 kg/ha,3.0
same,herbicidal rating TRZAWR,[2]; rate 0.0625 kg/ha,3.5
same,herbicidal rating TRZAWR,[2]; rate 0.1250 kg/ha,3.5
same,CYPIR herbicidal effect rating,CYPIR (Rice Flatsedge); 0.0313 kg/ha,5.0
same,CYPIR herbicidal effect rating,CYPIR (Rice Flatsedge); 0.0625 kg/ha,7.0
same,CYPIR herbicidal effect rating,CYPIR (Rice Flatsedge); 0.1250 kg/ha,7.0
same,CYPIR herbicidal effect rating,CYPIR (Rice Flatsedge); 0.2500 kg/ha,9.0
same,ZEAMX rating,"ZEAMX (Corn, Field); 0.1250 kg/ha",0.0
same,ZEAMX rating,"ZEAMX (Corn, Field); 0.2500 kg/ha",1.0
same,ZEAMX rating,"ZEAMX (Corn, Field); 0.5000 kg/ha",2.0
same,IPOHE rating,[3]; 0.1250 kg/ha,0.0
same,IPOHE rating,[3]; 0.2500 kg/ha,3.0
same,IPOHE rating,[3]; 0.5000 kg/ha,4.0
same,ECHORC herbicidal effect rating,[4]; 0.0313 kg/ha,0.0
same,ECHORC herbicidal effect rating,[4]; 0.0625 kg/ha,3.0
same,ECHORC herbicidal effect rating,[4]; 0.1250 kg/ha,4.0
same,ECHORC herbicidal effect rating,[4]; 0.2500 kg/ha,5.0
same,Herbicidal rating ECHORC,[5]; Rate 0.0313 kg/ha,0.0
same,Herbicidal rating ECHORC,[5]; Rate 0.0625 kg/ha,3.0
same,Herbicidal rating ECHORC,[5]; Rate 0.1250 kg/ha,4.0
same,Herbicidal rating ECHORC,[5]; Rate 0.2500 kg/ha,5.0
same,herbicidal rating SETVI,"SETVI (Foxtail, Green) [6]; rate 0.0156 kg/ha",0.0
same,herbicidal rating SETVI,"SETVI (Foxtail, Green) [6]; rate 0.0313 kg/ha",0.0
same,herbicidal rating SETVI,"SETVI (Foxtail, Green) [6]; rate 0.0625 kg/ha",2.0
same,herbicidal rating SETVI,"SETVI (Foxtail, Green) [6]; rate 0.1250 kg/ha",5.0
same,MOOVA herbicidal effect rating,MOOVA (Monochoria); 0.0313 kg/ha,6.0
same,MOOVA herbicidal effect rating,MOOVA (Monochoria); 0.0625 kg/ha,7.0
same,MOOVA herbicidal effect rating,MOOVA (Monochoria); 0.1250 kg/ha,7.0
same,MOOVA herbicidal effect rating,MOOVA (Monochoria); 0.2500 kg/ha,9.0
same,herbicidal rating IPOHE,[7]; rate 0.0156 kg/ha,5.0
same,herbicidal rating IPOHE,[7]; rate 0.0313 kg/ha,9.0
same,herbicidal rating IPOHE,[7]; rate 0.0625 kg/ha,9.0
same,herbicidal rating IPOHE,[7]; rate 0.1250 kg/ha,9.0
same,ABUTH rating,ABUTH (Velvetleaf); 0.1250 kg/ha,7.0
same,ABUTH rating,ABUTH (Velvetleaf); 0.2500 kg/ha,9.0
same,ABUTH rating,ABUTH (Velvetleaf); 0.5000 kg/ha,9.0
same,SETVI rating,"SETVI (Foxtail, Green) [8]; 0.1250 kg/ha",0.0
same,SETVI rating,"SETVI (Foxtail, Green) [8]; 0.2500 kg/ha",3.0
same,SETVI rating,"SETVI (Foxtail, Green) [8]; 0.5000 kg/ha",3.0
"C=CCN1C(=O)C(CC(=O)OC(C)C)SC1=Nc1cc(-n2c(=O)cc(C(F)(F)F)n(C)c2=O)c(F)cc1Cl (stereo not drawn) [Compound 66, Isopropyl 3-allyl-2-{{2-chloro-5-[3,6-dihydro-3-methyl-2,6-dioxo-4-(trifluoromethyl)-1(2H)-pyrimidinyl]-4-fluorophenyl}imino}-4-oxo-5-thiazolidineacetate]",Preemergence herbicidal rating ECHCG,ECHCG (Barnyardgrass); rate 0.0156 kg/ha,0.0
same,Preemergence herbicidal rating ECHCG,ECHCG (Barnyardgrass); rate 0.0313 kg/ha,0.0
same,Preemergence herbicidal rating ECHCG,ECHCG (Barnyardgrass); rate 0.0625 kg/ha,0.5
same,Preemergence herbicidal rating ECHCG,ECHCG (Barnyardgrass); rate 0.1250 kg/ha,0.5
same,Preemergence herbicidal rating ECHCG,ECHCG (Barnyardgrass); rate 0.2500 kg/ha,3.0
same,Preemergence herbicidal rating ECHCG,ECHCG (Barnyardgrass); rate 0.5000 kg/ha,9.0
same,Herbicidal rating SAGPY,[1]; Rate 0.0313 kg/ha,3.0
same,Herbicidal rating SAGPY,[1]; Rate 0.0625 kg/ha,4.0
same,Herbicidal rating SAGPY,[1]; Rate 0.1250 kg/ha,4.0
same,Herbicidal rating SAGPY,[1]; Rate 0.2500 kg/ha,4.0
same,GALAP herbicidal rating,GALAP (Galium); rate 0.0158 kg/ha,2.0
same,GALAP herbicidal rating,GALAP (Galium); rate 0.0313 kg/ha,3.0
same,GALAP herbicidal rating,GALAP (Galium); rate 0.0625 kg/ha,4.0
same,GALAP herbicidal rating,GALAP (Galium); rate 0.1250 kg/ha,9.0
same,TRZAWR herbicidal rating,[2]; rate 0.0158 kg/ha,3.5
same,TRZAWR herbicidal rating,[2]; rate 0.0313 kg/ha,7.0
same,TRZAWR herbicidal rating,[2]; rate 0.0625 kg/ha,8.0
same,TRZAWR herbicidal rating,[2]; rate 0.1250 kg/ha,7.5
same,CYPIR herbicidal effect rating,CYPIR (Rice Flatsedge); 0.0313 kg/ha,6.0
same,CYPIR herbicidal effect rating,CYPIR (Rice Flatsedge); 0.0625 kg/ha,6.0
same,CYPIR herbicidal effect rating,CYPIR (Rice Flatsedge); 0.1250 kg/ha,7.0
same,CYPIR herbicidal effect rating,CYPIR (Rice Flatsedge); 0.2500 kg/ha,7.0
same,Preemergence herbicidal rating ZEAMX,"ZEAMX (Corn, Field); rate 0.0156 kg/ha",0.5
same,Preemergence herbicidal rating ZEAMX,"ZEAMX (Corn, Field); rate 0.0313 kg/ha",0.0
same,Preemergence herbicidal rating ZEAMX,"ZEAMX (Corn, Field); rate 0.0625 kg/ha",0.5
same,Preemergence herbicidal rating ZEAMX,"ZEAMX (Corn, Field); rate 0.1250 kg/ha",1.0
same,Preemergence herbicidal rating ZEAMX,"ZEAMX (Corn, Field); rate 0.2500 kg/ha",2.5
same,Preemergence herbicidal rating ZEAMX,"ZEAMX (Corn, Field); rate 0.5000 kg/ha",7.0
same,Preemergence herbicidal rating IPOHE,[3]; rate 0.0156 kg/ha,0.0
same,Preemergence herbicidal rating IPOHE,[3]; rate 0.0313 kg/ha,0.0
same,Preemergence herbicidal rating IPOHE,[3]; rate 0.0625 kg/ha,0.5
same,Preemergence herbicidal rating IPOHE,[3]; rate 0.1250 kg/ha,3.0
same,Preemergence herbicidal rating IPOHE,[3]; rate 0.2500 kg/ha,6.0
same,Preemergence herbicidal rating IPOHE,[3]; rate 0.5000 kg/ha,9.0
same,ECHORC herbicidal effect rating,[4]; 0.0313 kg/ha,7.0
same,ECHORC herbicidal effect rating,[4]; 0.0625 kg/ha,7.0
same,ECHORC herbicidal effect rating,[4]; 0.1250 kg/ha,9.0
same,ECHORC herbicidal effect rating,[4]; 0.2500 kg/ha,9.0
same,Herbicidal rating ECHORC,[5]; Rate 0.0313 kg/ha,7.0
same,Herbicidal rating ECHORC,[5]; Rate 0.0625 kg/ha,7.0
same,Herbicidal rating ECHORC,[5]; Rate 0.1250 kg/ha,9.0
same,Herbicidal rating ECHORC,[5]; Rate 0.2500 kg/ha,9.0
same,SETVI herbicidal rating,"SETVI (Foxtail, Green) [6]; rate 0.0158 kg/ha",2.0
same,SETVI herbicidal rating,"SETVI (Foxtail, Green) [6]; rate 0.0313 kg/ha",9.0
same,SETVI herbicidal rating,"SETVI (Foxtail, Green) [6]; rate 0.0625 kg/ha",9.0
same,SETVI herbicidal rating,"SETVI (Foxtail, Green) [6]; rate 0.1250 kg/ha",9.0
same,MOOVA herbicidal effect rating,MOOVA (Monochoria); 0.0313 kg/ha,9.0
same,MOOVA herbicidal effect rating,MOOVA (Monochoria); 0.0625 kg/ha,9.0
same,MOOVA herbicidal effect rating,MOOVA (Monochoria); 0.1250 kg/ha,9.0
same,MOOVA herbicidal effect rating,MOOVA (Monochoria); 0.2500 kg/ha,9.0
same,IPOHE herbicidal rating,[7]; rate 0.0158 kg/ha,9.0
same,IPOHE herbicidal rating,[7]; rate 0.0313 kg/ha,9.0
same,IPOHE herbicidal rating,[7]; rate 0.0625 kg/ha,9.0
same,IPOHE herbicidal rating,[7]; rate 0.1250 kg/ha,9.0
same,Preemergence herbicidal rating ABUTH,ABUTH (Velvetleaf); rate 0.0156 kg/ha,5.0
same,Preemergence herbicidal rating ABUTH,ABUTH (Velvetleaf); rate 0.0313 kg/ha,8.0
same,Preemergence herbicidal rating ABUTH,ABUTH (Velvetleaf); rate 0.0625 kg/ha,9.0
same,Preemergence herbicidal rating ABUTH,ABUTH (Velvetleaf); rate 0.1250 kg/ha,9.0
same,Preemergence herbicidal rating ABUTH,ABUTH (Velvetleaf); rate 0.2500 kg/ha,9.0
same,Preemergence herbicidal rating ABUTH,ABUTH (Velvetleaf); rate 0.5000 kg/ha,9.0
same,Preemergence herbicidal rating SETVI,"SETVI (Foxtail, Green) [8]; rate 0.0156 kg/ha",0.0
same,Preemergence herbicidal rating SETVI,"SETVI (Foxtail, Green) [8]; rate 0.0313 kg/ha",0.5
same,Preemergence herbicidal rating SETVI,"SETVI (Foxtail, Green) [8]; rate 0.0625 kg/ha",0.5
same,Preemergence herbicidal rating SETVI,"SETVI (Foxtail, Green) [8]; rate 0.1250 kg/ha",6.0
same,Preemergence herbicidal rating SETVI,"SETVI (Foxtail, Green) [8]; rate 0.2500 kg/ha",7.5
same,Preemergence herbicidal rating SETVI,"SETVI (Foxtail, Green) [8]; rate 0.5000 kg/ha",9.0
